Laboratory results from patent US9217014B2, “Antifungal agents and uses thereof” (Cidara Therapeutics, Inc., priority 2011, dated 2015).
Where two headings read alike, the source gives them in different places. *1 amine or outer side, *2 acyl side, *3 side chain or, on linkers, in order; H or OH if unused. Where a SMILES comes first, the peptide text is derived from it. Bridges are numbered along the chain shown (N, C = ends). [ ]: non-standard residue; d: D form. The star is where a group is joined. pTerphenylCO(4''-OnC5H11) = CCCCCOc1ccc(-c2ccc(-c3ccc(C(=O)*)cc3)cc2)cc1; Orn(4R-OH,5R-OH) = O=C([C@H](C[C@@H](O)[C@@H](O)N[*:3])N[*:1])[*:2]; hTyr(3S-OH,4S-OH) = N[C@H](C(=O)O)[C@H](O)[C@@H](O)c1ccc(O)cc1; Pro(3S-OH,4S-Me) = C[C@H]1CN[C@H](C(=O)O)[C@H]1O; Hyp = O=C(O)[C@@H]1C[C@@H](O)CN1

Tests used:
[1] = system: C. albicans R303; experiment: mouse candidiasis infection model, IP administration, kidney fungal burden; type: in vivo
Experimental: The objective of these studies was to evaluate the efficacy of test compounds in the mouse candidiasis infection model. Amounts of test articles are uncorrected.
The strain, C. albicans R303 was transferred from frozen storage onto Sabauroud dextrose agar (SDA) plates and grown for ˜24 hr at 35° C. The inoculum was prepared by transferring colonies from the plate to phosphate buffered saline (PBS) and the concentration adjusted to approximately 10^6 CFU/mL with the aid of a spectrophotometer. The stock was diluted 1:9 to prepare the inoculum. Prior to each run the concentration was verified using the dilution plate count method.
Female CD-1 mice were used in this study. The animals were approximately seven-weeks-old at the start of the study and weighed about 15-30 g.
Mice were made neutropenic with IP injections of cyclophosphamide (150 mg/kg in 10 mL/kg) at 4 and 1 day before inoculation. Each animal was inoculated with the appropriate concentration by injecting 0.1 mL of inoculum into a tail vein. The test compounds were administered IP at 2 hr after infection.
In a typical procedure, the kidneys were collected from four mice in control group 1 (untreated) at 2 hr after infection, and from another four mice in control group 2 (untreated) at 24 hr after infection. Kidneys were removed aseptically from each mouse and were combined in a sterile tube. An aliquot (2 mL) of sterile PBS was added to each tube and the contents homogenized with a tissue homogenizer (Polytron 3100). Serial dilutions of the tissue homogenates were conducted and 0.1 mL aliquots were spread on SDA plates and the plates incubated at 35° C. overnight. The CFU/kidneys were determined from colony counts. Data were analyzed using one-way ANOVA with either the Tukey-Kramer Multiple Comparisons Test or Dunnett Test (GraphPad InStat version 3.06, GraphPad Software, San Diego, Calif.).
The data reported below are the average of four mice. Each run included a separate control and each is tabulated separately.

[2] = Pharmacokinetics in beagle dogs, intravenous; type: in vivo; details: 1.4 mg/kg intravenous slow bolus, mean ± SEM, n = 4 beagle dogs
Experimental: The test articles were administered to beagle dogs weighing approximately 6-10 kg. Each test article was dosed at 1.4 mg/kg in aqueous saline (with or without 0.5% Tween) over course of 1-10 minutes. […] The dogs were fasted at least 12 hours prior to each dosing and offered food after the 4-hour blood sample was taken; water was withheld for 1 hour prior to and 4 hours following each dosing event. The dose for each animal was based on its most recent body weight. The test article was injected intravenously via a catheter placed in the cephalic vein as a slow bolus.
Blood was collected via the jugular vein. All blood samples (˜1 mL each) were collected into K3EDTA tubes. Following blood collection, the samples were immediately inverted several times and were held on wet ice pending centrifugation. The samples were centrifuged within ˜30 minutes of collection under refrigeration (˜5° C. for ˜10 minutes at ˜2000 g) to obtain plasma. The plasma was frozen immediately on dry ice after separation. The plasma samples were stored at approximately −70° C. until analysis.
Plasma (100 μL) was precipitated with 400 μL of 0.1% formic acid in acetonitrile containing the internal standard (100 ng/mL pneumocandin). The samples were then capped and vortexed for about 30 seconds followed by centrifugation at 14,000 rpm at room temperature for 10 minutes. Following centrifugation 200 μL of supernatant was transferred to plastic autosampler vials containing 200 μL of 0.1% formic acid in water and vortexed. Samples were then analyzed by LCMSMS.
All pharmacokinetic calculations were performed using WinNonlin version 4.1 (Pharsight Corp) by noncompartmental analysis.

[3] = Solubility in aqueous buffers of varying pH; type: physicochemical; details: ambient temperature, compound 1 as acetate salt
Experimental: The solubility of compound 1 (acetate salt) was measured in aqueous buffers of varying pH to assess this compound's suitability for formulation in an aqueous carrier for administration by injection (e.g., intravenous or intramuscular injection).

[4] = Solubility in non-aqueous solvents; type: physicochemical; details: organic solvent or mixture, compound 1 as acetate salt
Experimental: The solubility of compound 1 (acetate salt) was also measured in non-aqueous solvents to assess this compound's suitability for formulation in non-aqueous carriers.

For CCCCCOc1ccc(-c2ccc(-c3ccc(C(=O)N[C@H]4C[C@@H](O)[C@@H](O)NC(=O)[C@@H]5[C@@H](O)[C@@H](C)CN5C(=O)[C@H]([C@@H](C)O)NC(=O)[C@H]([C@H](O)[C@@H](O)c5ccc(O)cc5)NC(=O)[C@@H]5C[C@@H](O)CN5C(=O)[C@H]([C@@H](C)O)NC4=O)cc3)cc2)cc1 [anidulafungin, reference compound] ({pTerphenylCO(4''-OnC5H11)}-[Orn(4R-OH,5R-OH)]T[Hyp][hTyr(3S-OH,4S-OH)]T[Pro(3S-OH,4S-Me)]; lactam 1-C), which log reduction at 1 mg/kg ([1]; Candida albicans, R303, ip, 24 h, read-out: Difference from 24-h control, Fifth run, IP 1 mg/kg) is on record?
The log reduction at 1 mg/kg was 2.07.

What about the log reduction at 1 mg/kg ([1]; Candida albicans, R303, ip, 24 h, read-out: Difference from 24-h control, First run, IP 1 mg/kg) of the same molecule?
Its log reduction at 1 mg/kg is 1.83.

And the log reduction at 0.5 mg/kg ([1]; Candida albicans, R303, ip, 24 h, read-out: Difference from 24-h control, Fourth run, IP 0.5 mg/kg)?
The log reduction at 0.5 mg/kg was 1.29.

And the log reduction at 1.5 mg/kg ([1]; Candida albicans, R303, ip, 24 h, read-out: Difference from 24-h control, Fourth run, IP 1.5 mg/kg)?
Its log reduction at 1.5 mg/kg is 4.03.

What about the log reduction at 0.5 mg/kg ([1]; Candida albicans, R303, ip, 24 h, read-out: Difference from 24-h control, Second run, IP 0.5 mg/kg) of the same molecule?
Its log reduction at 0.5 mg/kg is 0.47.

What about the log reduction at 1.5 mg/kg ([1]; Candida albicans, R303, ip, 24 h, read-out: Difference from 24-h control, Second run, IP 1.5 mg/kg) of the same molecule?
Its log reduction at 1.5 mg/kg is 2.11.

And the log reduction at 4.5 mg/kg ([1]; Candida albicans, R303, ip, 24 h, read-out: Difference from 24-h control, Second run, IP 4.5 mg/kg)?
The log reduction at 4.5 mg/kg was 3.78.

What about the “Mean log10 CFU/kidneys (±SEM)” value ([1]; Fifth run, IP 1 mg/kg, kidneys 24 h after infection) of the same molecule?
Its value is 3.06 ± 0.18 log10 CFU/kidneys.

What about the “Mean log10 CFU/kidneys (±SD)” value ([1]; First run, IP 1 mg/kg, neutropenic mice, kidneys 24 h after infection) of the same molecule?
The value was 3.37 ± 0.72 log10 CFU/kidneys.

And the “Mean log10 CFU/kidneys (±SEM)” value ([1]; Fourth run, IP 0.5 mg/kg, kidneys 24 h after infection)?
Its value is 3.81 ± 0.19 log10 CFU/kidneys.

What about the “Mean log10 CFU/kidneys (±SEM)” value ([1]; Fourth run, IP 1.5 mg/kg, kidneys 24 h after infection) of the same molecule?
The value was 1.08 ± 0.08 log10 CFU/kidneys.

What about the “Mean log10 CFU/kidneys (±SEM)” value ([1]; Second run, IP 0.5 mg/kg, kidneys 24 h after infection) of the same molecule?
Its value is 4.41 ± 0.12 log10 CFU/kidneys.

What about the “Mean log10 CFU/kidneys (±SEM)” value ([1]; Second run, IP 1.5 mg/kg, kidneys 24 h after infection) of the same molecule?
The value was 2.77 ± 0.20 log10 CFU/kidneys.

What about the “Mean log10 CFU/kidneys (±SEM)” value ([1]; Second run, IP 4.5 mg/kg, kidneys 24 h after infection) of the same molecule?
Its value is 1.10 ± 0.38 log10 CFU/kidneys.

What about the CI [2] of the same molecule?
Its CI is 47.1 ± 1.92 mL/h/kg.

What about the Vz [2] of the same molecule?
The Vz was 779 ± 30.4 mL/kg.

And the half-life ([2]; beagle, dog, in vivo, iv, 1.4 mg/kg, read-out: T ½ (converted))?
Its half-life is about 720 min.

And the solubility ([3]; aqueous buffer, pH 3 (0.01M formate buffer))?
The solubility was under 10 µg/mL.

What about the solubility ([3]; aqueous buffer, pH 4.6 (0.1M acetate buffer)) of the same molecule?
The solubility was under 10 µg/mL.

What about the solubility ([3]; aqueous buffer, pH 5.6 (0.1M acetate buffer)) of the same molecule?
Its solubility is under 10 µg/mL.

What about the solubility ([3]; aqueous buffer, pH 7.4 (0.1M phosphate buffer)) of the same molecule?
Its solubility is under 10 µg/mL.

What about the solubility ([3]; aqueous buffer, pH 8.5 (0.01M TRIS buffer)) of the same molecule?
The solubility was under 10 µg/mL.

And the solubility ([3]; saline or isotonic, 0.9% saline)?
Its solubility is under 10 µg/mL.

What about the solubility ([3]; simulated gastric fluid, pH 1 (0.1M HCl)) of the same molecule?
The solubility was under 10 µg/mL.

And the solubility ([4]; Ethanol (EtOH))?
Its solubility is over 17.6 mg/mL.

And the solubility ([4]; Glycerol)?
The solubility was 1.5 mg/mL.

And the solubility ([4]; PEG400)?
The solubility was over 26.8 mg/mL.

What about the solubility ([4]; Propylene glycol(PG)) of the same molecule?
Its solubility is over 17.2 mg/mL.
